Test results as given in patent US9913843B2, “Protein kinase C inhibitors and uses thereof” (Rigel Pharmaceuticals, Inc., priority 2012, dated 2018).
Like-named read-outs stand apart in the source and are kept apart here.

Test system: PKC mediated IL-2 production in human primary T cells
Assay: IL-2 ELISA, human primary T cell, anti CD3+CD28+ (whole cell functional assay for PKC mediated IL-2 production)
Format: cell-based
Procedure, shortened: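 IL-2 in supernatants was quantified by ELISA after 24 h at 37 °C. Before stimulation with plate-coated anti-CD3 (1 μg/ml) and anti-CD28 (5 μg/ml), T cells expanded from PBMC were exposed to compound for 1 h; the counter-screen replaced antibodies with PMA 0.5 ng/ml and ionomycin 0.1 μM (final).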

[1] = 24 h, human primary T cells stimulated with anti-CD3 + anti-CD28, IL-2 by ELISA, read-out: IC50 for blocking IL-2 production
[2] = human primary T cells stimulated with anti-CD3 + anti-CD28, 24 h, IL-2 by ELISA, 8 pt, read-out: IL2 ELISA, Human primary T cell, anti-CD3 + CD28, 8 pt (IC50)

Compound	IC50 [1]	IC50 [2]
Cn1nnn(-c2cc(Nc3ncc(C#N)c(NC[C@@H]4CCCN5CCCC[C@H]45)n3)c(F)cc2OC(C)(C)CO)c1=O [Compound 151, 2-((2-fluoro-4-((1-hydroxy-2-methylpropan-2-yl)oxy)-5-(4-methyl-5-oxo-4,5-dihydro-1H-tetrazol-1-yl)phenyl)amino)-4-((((1S,9aR)-octahydro-2H-quinolizin-1-yl)methyl)amino)pyrimidine-5-carbonitrile]	< 30000 nM	306 nM
C[C@H](O)COc1cc(F)c(Nc2ncc(Cl)c(NC[C@@H]3CCCN4CCCC[C@H]34)n2)cc1-n1nnn(C)c1=O [Compound 152, 1-(5-((5-chloro-4-((((1S,9aR)-octahydro-2H-quinolizin-1-yl)methyl)amino)pyrimidin-2-yl)amino)-4-fluoro-2-((S)-2-hydroxypropoxy)phenyl)-4-methyl-1,4-dihydro-5H-tetrazol-5-one]	< 30000 nM	89.8 nM
Cn1nnn(-c2cc(Nc3ncc(Cl)c(NC[C@@H]4CCCN5CCCC[C@H]45)n3)c(F)cc2OC(C)(C)CO)c1=O [Compound 153, 1-(5-((5-chloro-4-((((1S,9aR)-octahydro-2H-quinolizin-1-yl)methyl)amino)pyrimidin-2-yl)amino)-4-fluoro-2-((1-hydroxy-2-methylpropan-2-yl)oxy)phenyl)-4-methyl-1,4-dihydro-5H-tetrazol-5-one]	< 30000 nM	832 nM
Cn1nnn(-c2cc(Nc3ncc(F)c(NC[C@@H]4CCCN5CCCC[C@H]45)n3)c(F)cc2OCC(C)(C)O)c1=O [Compound 154, 1-(4-fluoro-5-((5-fluoro-4-((((1S,9aR)-octahydro-2H-quinolizin-1-yl)methyl)amino)pyrimidin-2-yl)amino)-2-(2-hydroxy-2-methylpropoxy)phenyl)-4-methyl-1,4-dihydro-5H-tetrazol-5-one]	< 30000 nM	188 nM
Cn1nnn(-c2cc(Nc3ncc(Cl)c(NC[C@@H]4CCCN5CCCC[C@H]45)n3)c(F)cc2OCC(C)(C)O)c1=O [Compound 155, 1-(5-((5-chloro-4-((((1S,9aR)-octahydro-2H-quinolizin-1-yl)methyl)amino)pyrimidin-2-yl)amino)-4-fluoro-2-(2-hydroxy-2-methylpropoxy)phenyl)-4-methyl-1,4-dihydro-5H-tetrazol-5-one]	< 30000 nM	136 nM
Cn1nnn(-c2cc(Nc3ncc(C#N)c(NC[C@@H]4CCCN5CCCC[C@H]45)n3)c(F)cc2OCC(C)(C)O)c1=O [Compound 156, 2-((2-fluoro-4-(2-hydroxy-2-methylpropoxy)-5-(4-methyl-5-oxo-4,5-dihydro-1H-tetrazol-1-yl)phenyl)amino)-4-((((1S,9aR)-octahydro-2H-quinolizin-1-yl)methyl)amino)pyrimidine-5-carbonitrile]	< 30000 nM	27.6 nM
